# Data reported in patent US8815881B2 (Hoffmann-La Roche Inc., priority 2010, dated 2014).
# Target: endogenous cellular BACE2 in the Ins1e rat cell line (Rattus norvegicus (Rat), UniProt Q6IE75)
# Assay: Assay for BACE inhibition by measuring cellular TMEM27 cleavage (ELISA of shed hTMEM27 from INS-TMEM27 cells)
# Format: cell-based
# Details: assay a): cellular TMEM27 cleavage, INS-TMEM27 cells (superscript a)
# Outline: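 INS1e-derived cells with doxycycline-inducible (TetOn) full-length human TMEM27 get inhibitor 2 h before 500 ng/ml doxycycline, then 46 h further culture at 37 °C. Shed TMEM27 in supernatant measured by sandwich ELISA (anti-extracellular-domain antibodies); EC50 from concentration-response curve fit.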
# Chain of endogenous cellular BACE2 in the Ins1e rat cell line (Q6IE75 63-514): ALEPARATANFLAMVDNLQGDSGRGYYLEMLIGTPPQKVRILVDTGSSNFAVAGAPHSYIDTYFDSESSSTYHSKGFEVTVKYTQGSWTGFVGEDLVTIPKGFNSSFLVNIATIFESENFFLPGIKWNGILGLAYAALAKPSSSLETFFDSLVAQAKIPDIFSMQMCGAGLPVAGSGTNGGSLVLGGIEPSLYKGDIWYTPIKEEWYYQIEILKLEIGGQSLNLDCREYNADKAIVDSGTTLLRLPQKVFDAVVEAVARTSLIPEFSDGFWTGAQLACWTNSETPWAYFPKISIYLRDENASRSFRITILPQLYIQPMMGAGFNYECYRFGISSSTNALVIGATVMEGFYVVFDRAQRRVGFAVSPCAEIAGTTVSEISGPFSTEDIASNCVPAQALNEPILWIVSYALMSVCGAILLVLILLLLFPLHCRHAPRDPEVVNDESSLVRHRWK
row,IC50,Compound
1,242 nM,"CN1C(=O)C(C)(C)[C@@](C)(c2cc(NC[C@@H]3C[C@H]3c3ccccc3)ccc2F)N=C1N [Example 97, (S)-2-Amino-6-{2-fluoro-5-[((1R,2R)-2-phenyl-cyclopropylmethyl)-amino]-phenyl}-3,5,5,6-tetramethyl-5,6-dihydro-3H-pyrimidin-4-one]"
2,57 nM,"CCOC(=O)CC1CCC(Nc2ccc(F)c([C@@]3(C)N=C(N)N(C)C(=O)C3(C)C)c2)C1(C)C (stereo partly drawn) [Example 98, {3-[3-((S)-2-Amino-1,4,5,5-tetramethyl-6-oxo-1,4,5,6-tetrahydro-pyrimidin-4-yl)-4-fluoro-phenylamino]-2,2-dimethyl-cyclopentyl}-acetic acid ethyl ester]"
3,6 nM,"CN1C(=O)C(C)(C)[C@@](C)(c2cc(Nc3ccn(C)n3)ccc2F)N=C1N [Example 99, (S)-2-Amino-6-[2-fluoro-5-(1-methyl-1H-pyrazol-3-ylamino)-phenyl]-3,5,5,6-tetramethyl-5,6-dihydro-3H-pyrimidin-4-one]"
4,1 nM,"CCOC(=O)[C@H]1[C@@H]2C[C@@H](O)C(Nc3ccc(F)c([C@@]4(C)N=C(N)N(C)C(=O)C4(C)C)c3)[C@@H]21 (stereo partly drawn) [Example 100, (1S,3R,5R,6S)-ethyl 2-(3-((S)-2-amino-1,4,5,5-tetramethyl-6-oxo-1,4,5,6-tetrahydropyrimidin-4-yl)-4-fluorophenylamino)-3-hydroxybicyclo[3.1.0]hexane-6-carboxylate]"
5,1 nM,"CN1C(=O)C(C)(C)[C@@](C)(c2cc(NC3CC4CC3CC4O)ccc2F)N=C1N (stereo partly drawn) [Example 101, (6S)-2-Amino-6-(2-fluoro-5-(5-hydroxybicyclo[2.2.1]heptan-2-ylamino)phenyl)-3,5,5,6-tetramethyl-5,6-dihydropyrimidin-4(3H)-one]"
6,217 nM,"COc1cc(F)c(F)cc1Nc1ccc(F)c([C@@]2(C)N=C(N)N(C)C(=O)C2(C)C)c1 [Example 102, (S)-2-Amino-6-[5-(4,5-difluoro-2-methoxy-phenylamino)-2-fluoro-phenyl]-3,5,5,6-tetramethyl-5,6-dihydro-3H-pyrimidin-4-one]"
7,1 nM,"CN1C(=O)C(C)(C)[C@@](C)(c2cc(Nc3ccccc3C#N)ccc2F)N=C1N [Example 103, (S)-2-(3-(2-Amino-1,4,5,5-tetramethyl-6-oxo-1,4,5,6-tetrahydropyrimidin-4-yl)-4-fluorophenylamino)benzonitrile]"
8,4 nM,"Cc1cc(CNc2ccc(F)c([C@@]3(C)N=C(N)N(C)C(=O)C3(C)C)c2)no1 [Example 104, (S)-2-Amino-6-{2-fluoro-5-[(5-methyl-isoxazol-3-ylmethyl)-amino]-phenyl}-3,5,5,6-tetramethyl-5,6-dihydro-3H-pyrimidin-4-one]"
9,12 nM,"CN1C(=O)C(C)(C)[C@@](C)(c2cc(Nc3ccccn3)ccc2F)N=C1N [Example 105, (S)-2-Amino-6-(2-fluoro-5-(pyridin-2-ylamino)phenyl)-3,5,5,6-tetramethyl-5,6-dihydropyrimidin-4(3H)-one]"
10,2 nM,"CN1C(=O)C(C)(C)[C@@](C)(c2cc(NC3CC(C)(C)c4ccccc43)ccc2F)N=C1N (stereo partly drawn) [Example 106, (6S)-2-Amino-6-(5-(3,3-dimethyl-2,3-dihydro-1H-inden-1-ylamino)-2-fluorophenyl)-3,5,5,6-tetramethyl-5,6-dihydropyrimidin-4(3H)-one]"
11,2 nM,"CN1C(=O)C(C)(C)[C@@](C)(c2cc(Nc3ccnn3Cc3ccccc3)ccc2F)N=C1N [Example 107, (S)-2-Amino-6-(5-(1-benzyl-1H-pyrazol-5-ylamino)-2-fluorophenyl)-3,5,5,6-tetramethyl-5,6-dihydropyrimidin-4(3H)-one]"
12,178 nM,"COc1ccc(Nc2ccc(F)c([C@@]3(C)N=C(N)N(C)C(=O)C3(C)C)c2)c(OC)c1 [Example 108, (S)-2-Amino-6-(5-(2,4-dimethoxyphenylamino)-2-fluorophenyl)-3,5,5,6-tetramethyl-5,6-dihydropyrimidin-4(3H)-one]"
